# Data from US11292787B2, “Five-membered-fused-six-membered aza-aromatic ring compound, preparation method thereof, pharmaceutical composition and application thereof” (XIAMEN UNIVERSITY, priority 2017, dated 2022).
# Biological target: T1, K-Ras protein (Homo sapiens, UniProt P01116, G12V)
# T1 construct: in SW620 cells, compound I-a-1 can effectively enhance the degradation of endogenous K-RAS-G12V proteins; endogenous in cells; host or cells: SW-620
# Assay: K-Ras protein degradation rate by Western blot in SW-620 cells
# Assay type: cell-based
# Details: 10 μM, SW-620 cells, 24 h, Western blot, relative to DMSO control; read-out: Degradation rate of compounds at 10 μM on Ras protein (%)
# Procedure: Inhibitory activity of compounds on K-RAS was evaluated by the degradation rate of protein level of administration group relative to control group (Cell Rep 2014, 7, 871-882).
# The specific method was as follows:
# 1. Cell plating: SW-620 cells in logarithmic growth phase were inoculated into a 24-well plate at 2×10^4/well, and cultured in a 37° C., 5% CO2 incubator.
# 2. Administering drug to cells: after 24 h of culture, various drug stocks […]; the original solution in the 24-well plate was discarded, to which was added the obtained drug solution, with the DMSO group as the blank control; after the drug solution was added, the 24-well plate was transferred to the 37° C. CO2 incubator to continue the culture.
# 3. Detection of K-Ras protein level: after 24 h of administration and culture, the liquid in the well was discarded, the cells were routinely collected, and rinsed twice with 1×PBS, a cell lysate was added to extract the total cellular protein, and the protein concentration was determined by BCA method. 30 μg of the protein sample was taken for SDS-polyacrylamide gel electrophoretic transmembrane, the membrane was blocked sequentially, incubated with K-Ras antibody (1:1000) and internal reference antibody β-actin (1:2000) respectively overnight at 4° C., rinsed with TBST for 5 min×3 times, then incubated with the addition of the corresponding horseradish peroxidase-labeled secondary antibody (1:5000) for 1-2 h, and rinsed with TBST for 5 min×3 times. Finally, chemiluminescence image was acquired using Image Lab software.
# 4. Calculation of single-point K-Ras protein degradation rate: quantitative and calibration analysis of K-Ras and β-actin were conducted using Image-Lab software, and then the intracellular K-Ras degradation rate was calculated according to the following formula: single-point K-Ras protein degradation rate (%)=(control group−administration group)/control group×100%. The drug with degradation rate ≥20% was selected for soft agar experiment.
# T1 sequence (P01116 1-188 isoform P01116-2 G12V): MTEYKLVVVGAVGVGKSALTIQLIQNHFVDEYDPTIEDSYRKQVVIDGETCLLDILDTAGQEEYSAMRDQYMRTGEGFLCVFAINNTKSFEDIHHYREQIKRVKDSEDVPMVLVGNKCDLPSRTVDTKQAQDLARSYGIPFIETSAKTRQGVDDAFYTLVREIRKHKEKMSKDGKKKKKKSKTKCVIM
row,SMILES,percent K-Ras protein degradation (single point) at 10 µM
1,Cc1ccc(CNC(=O)c2c[nH]c(-c3n[nH]c4ncccc34)c2)cc1 [III-f-52],35%
2,COc1cccc(CNC(=O)c2c[nH]c(-c3n[nH]c4ncccc34)c2)c1 [III-f-53],50%
3,COc1ccccc1CNC(=O)c1c[nH]c(-c2n[nH]c3ncccc23)c1 [III-f-54],50%
4,COc1ccc(CNC(=O)c2c[nH]c(-c3n[nH]c4ncccc34)c2)cc1 [III-f-55],25%
5,O=C(NCc1cc(F)ccc1F)c1c[nH]c(-c2n[nH]c3ncccc23)c1 [III-f-56],70%
6,O=C(NCc1ccc(F)c(C(F)(F)F)c1)c1c[nH]c(-c2n[nH]c3ncccc23)c1 [III-f-57],70%
7,O=C(NCc1cc(F)cc(C(F)(F)F)c1)c1c[nH]c(-c2n[nH]c3ncccc23)c1 [III-f-58],75%
8,O=C(NCc1cc(C(F)(F)F)cc(C(F)(F)F)c1)c1c[nH]c(-c2n[nH]c3ncccc23)c1 [III-f-59],60%
9,O=C(NCc1cccc(C(F)(F)F)c1F)c1c[nH]c(-c2n[nH]c3ncccc23)c1 [III-f-60],65%
10,O=C(NCc1ccc(Cl)c(C(F)(F)F)c1)c1c[nH]c(-c2n[nH]c3ncccc23)c1 [III-f-61],50%
11,O=C(NCc1cc(C(F)(F)F)ccc1F)c1c[nH]c(-c2n[nH]c3ncccc23)c1 [III-f-62],70%
12,O=S(=O)(NCc1c(F)cccc1Cl)c1c[nH]c(-c2n[nH]c3ncccc23)c1 [III-g-4],12%
13,O=S(=O)(Cc1ccccc1)c1c[nH]c(-c2n[nH]c3ncccc23)c1 [III-h-1],14%
14,O=S(=O)(Cc1c(Cl)cccc1Cl)c1c[nH]c(-c2n[nH]c3ncccc23)c1 [III-h-3],18%
15,O=S(=O)(Cc1c(F)cccc1Cl)c1c[nH]c(-c2n[nH]c3ncccc23)c1 [III-h-4],41%
16,O=S(=O)(Cc1ccc(Cl)cc1)c1c[nH]c(-c2n[nH]c3ncccc23)c1 [III-h-5],16%
17,O=C(NCc1c(F)cccc1Cl)c1csc(-c2c[nH]c3ccccc23)c1 [IV-a-1],10%
18,O=C(Nc1ccccc1)c1csc(-c2c[nH]c3ccccc23)c1 [IV-a-2],50%
19,O=C(NC1CCCCC1)c1csc(-c2c[nH]c3ccccc23)c1 [IV-a-3],35%
20,O=C(NCc1c(F)cccc1Cl)c1coc(-c2c[nH]c3ccccc23)c1 [IV-c-1],30%

row,SMILES,percent K-Ras protein degradation (single point) at 10 µM
1,O=C(Nc1ccccc1)c1coc(-c2c[nH]c3ccccc23)c1 [IV-c-2],50%
2,O=C(NCc1c(F)cccc1Cl)c1ccc(-c2c[nH]c3ccccc23)cc1 [IV-e-1],30%
3,O=C(Nc1ccccc1)c1ccc(-c2c[nH]c3ccccc23)cc1 [IV-e-2],20%
4,O=C(NC1CCCCC1)c1ccc(-c2c[nH]c3ccccc23)cc1 [IV-e-3],40%
5,O=C(NCc1c(F)cccc1Cl)c1ccc(-c2c[nH]c3ccccc23)s1 [IV-f-1],10%
6,O=C(NCc1c(F)cccc1Cl)c1coc(-c2cnc3ccccn23)c1 [IX-c-1],40%
7,O=C(Nc1ccccc1)c1coc(-c2cnc3ccccn23)c1 [IX-c-2],40%
8,O=C(NCc1c(F)cccc1Cl)c1cccc(-c2cnc3ccccn23)c1 [IX-d-1],30%
9,O=C(NCc1c(F)cccc1Cl)c1ccc(-c2cnc3ccccn23)cc1 [IX-e-1],40%
10,O=C(Nc1ccccc1)c1ccc(-c2cnc3ccccn23)cc1 [IX-e-2],50%
11,O=C(NCc1c(F)cccc1Cl)c1ccc(-c2cnc3ccccn23)s1 [IX-f-1],50%
12,CC(C)(C)n1nc(-c2cc(C(=O)Nc3ccccc3)cs2)c2c(N)ncnc21 [VI-a-2],30%
13,CC(C)(C)n1nc(-c2cccc(C(=O)NCc3c(F)cccc3Cl)c2)c2c(N)ncnc21 [VI-d-1],30%
14,CC(C)(C)n1nc(-c2cccc(C(=O)Nc3ccccc3)c2)c2c(N)ncnc21 [VI-d-2],30%
15,O=C(NCc1c(F)cccc1Cl)c1csc(-c2cnc3cnccn23)c1 [VII-a-1],5%
16,O=C(NCc1cccc(C(F)(F)F)c1)c1csc(-c2cnc3cnccn23)c1 [VII-a-2],60%
17,O=C(NCc1cc(C(F)(F)F)ccc1F)c1csc(-c2cnc3cnccn23)c1 [VII-a-3],30%
18,O=C(NCc1c(F)cccc1Cl)c1c[nH]c(-c2cnc3cnccn23)c1 [VII-b-1],20%
19,O=C(Nc1ccccc1)c1c[nH]c(-c2cnc3cnccn23)c1 [VII-b-2],20%
20,O=C(NC1CCCCC1)c1c[nH]c(-c2cnc3cnccn23)c1 [VII-b-3],10%

row,SMILES,percent K-Ras protein degradation (single point) at 10 µM
1,O=C(NCc1c(F)cccc1Cl)c1ccc(-c2cnc3cnccn23)cc1 [VII-e-1],30%
2,O=C(Nc1ccccc1)c1ccc(-c2cnc3cnccn23)cc1 [VII-e-2],20%
3,O=C(NC1CCCCC1)c1ccc(-c2cnc3cnccn23)cc1 [VII-e-3],30%
4,O=C(NCc1c(F)cccc1Cl)c1ccc(-c2cnc3cnccn23)s1 [VII-f-1],25%
5,O=C(Nc1ccccc1)c1ccc(-c2cnc3cnccn23)s1 [VII-f-2],30%
6,O=C(NC1CCCCC1)c1ccc(-c2cnc3cnccn23)s1 [VII-f-3],20%
7,O=C(NCc1c(F)cccc1Cl)c1csc(-c2cnc3cccnn23)c1 [VIII-a-1],40%
8,O=C(NCc1cccc(C(F)(F)F)c1)c1csc(-c2cnc3cccnn23)c1 [VIII-a-2],60%
9,O=C(NCc1cc(C(F)(F)F)ccc1F)c1csc(-c2cnc3cccnn23)c1 [VIII-a-3],50%
10,O=C(NCc1c(F)cccc1Cl)c1c[nH]c(-c2cnc3cccnn23)c1 [VIII-b-1],20%
11,O=C(Nc1ccccc1)c1c[nH]c(-c2cnc3cccnn23)c1 [VIII-b-2],10%
12,O=C(NC1CCCCC1)c1c[nH]c(-c2cnc3cccnn23)c1 [VIII-b-3],2%
13,O=C(NCc1c(F)cccc1Cl)c1coc(-c2cnc3cccnn23)c1 [VIII-c-1],12%
14,O=C(Nc1ccccc1)c1coc(-c2cnc3cccnn23)c1 [VIII-c-2],10%
15,O=C(NCc1c(F)cccc1Cl)c1cccc(-c2cnc3cccnn23)c1 [VIII-d-1],2%
16,O=C(NC1CCCCC1)c1ccc(-c2cnc3cccnn23)cc1 [VIII-e-3],20%
17,O=C(NC1CCCCC1)c1ccc(-c2cnc3cccnn23)s1 [VIII-f-3],15%
18,O=C(NCc1c(F)cccc1Cl)c1coc(-c2nnc3ccccn23)c1 [X-c-1],10%
19,O=C(NCc1c(F)cccc1Cl)c1ccc(-c2nnc3ccccn23)cc1 [X-e-1],10%
20,O=C(NCc1c(F)cccc1Cl)c1ccc(-c2nnc3ccccn23)s1 [X-f-1],20%
